Reference: BigSolDB 2.1

Cc1cnc(NC(=O)C2=C(O)c3ccccc3S(=O)(=O)N2C)s1
solubility (mole fraction)
Settings	288.15 K	293.15 K	298.15 K	303.15 K	308.15 K
in ethanol	2.2e-05	2.55e-05	3.2e-05	3.95e-05	5.3e-05
in ethylene glycol	2.53e-05	2.59e-05	3.02e-05	2.91e-05	3.06e-05
in propylene glycol	4.49e-05	4.52e-05	4.74e-05	5.6e-05	6.61e-05
in water	2e-07	3e-07	4e-07	9e-07	1.1e-06
